Results reported in the supplement of paper PMC13380429.

Columns and labels:
Details in all cases: 72 h
Calu-3 [1] = assay: drug sensitivity score (DSS) for viability; higher = more toxic; extreme values may be limits of the assay
Vero E6 [2] = assay: as above
U2OS [3] = assay: as above
HepG2 [4] = assay: as above
Caco-2 [5] = assay: as above
Calu-3 [6] = assay: cell viability relative to DMSO; higher = less toxic
Vero E6 [7] = assay: as above
U2OS [8] = assay: as above
HepG2 [9] = assay: as above
Caco-2 [10] = assay: as above
Calu-3 [11] = assay: relative viability EC50 (midpoint between 100% and the lowest measured viability); higher = less toxic
Vero E6 [12] = assay: as above
U2OS [13] = assay: as above
HepG2 [14] = assay: as above
Caco-2 [15] = assay: as above

Row | Structure (SMILES) | drug sensitivity score (Calu-3 [1]) | drug sensitivity score (Vero E6 [2]) | drug sensitivity score (U2OS [3]) | drug sensitivity score (HepG2 [4]) | drug sensitivity score (Caco-2 [5]) | cell viability (Calu-3 [6]; 1 nM) [%] | cell viability (Calu-3 [6]; 10 nM) [%] | cell viability (Calu-3 [6]; 100 nM) [%] | cell viability (Calu-3 [6]; 1000 nM) [%] | cell viability (Calu-3 [6]; 10000 nM) [%] | cell viability (Vero E6 [7]; 1 nM) [%] | cell viability (Vero E6 [7]; 10 nM) [%] | cell viability (Vero E6 [7]; 100 nM) [%] | cell viability (Vero E6 [7]; 1000 nM) [%] | cell viability (Vero E6 [7]; 10000 nM) [%] | cell viability (U2OS [8]; 1 nM) [%] | cell viability (U2OS [8]; 10 nM) [%] | cell viability (U2OS [8]; 100 nM) [%] | cell viability (U2OS [8]; 1000 nM) [%] | cell viability (U2OS [8]; 10000 nM) [%] | cell viability (HepG2 [9]; 1 nM) [%] | cell viability (HepG2 [9]; 10 nM) [%] | cell viability (HepG2 [9]; 100 nM) [%] | cell viability (HepG2 [9]; 1000 nM) [%] | cell viability (HepG2 [9]; 10000 nM) [%] | cell viability (Caco-2 [10]; 1 nM) [%] | cell viability (Caco-2 [10]; 10 nM) [%] | cell viability (Caco-2 [10]; 100 nM) [%] | cell viability (Caco-2 [10]; 1000 nM) [%] | cell viability (Caco-2 [10]; 10000 nM) [%] | relative viability EC50 (Calu-3 [11]) [µM] | relative viability EC50 (Vero E6 [12]) [µM] | relative viability EC50 (U2OS [13]) [µM] | relative viability EC50 (HepG2 [14]) [µM] | relative viability EC50 (Caco-2 [15]) [µM]
1 | CCC(=O)O[C@H]1[C@H](O[C@@H]2[C@@H](C)[C@H](O[C@H]3C[C@@](C)(OC)[C@@H](O)[C@H](C)O3)[C@@H](C)C(=O)O[C@H](CC)[C@@](C)(O)[C@H](O)[C@@H](C)C(=O)[C@H](C)C[C@@]2(C)O)O[C@H](C)C[C@@H]1N(C)C [erythromycin-estolate] | 0 | 0 | 0 | 0 | 0 | 91.3 | 96 | 91.4 | 88.6 | 99 | 96.9 | 95.9 | 101 | 96.4 | 102 | 98.7 | 98.4 | 101 | 104 | 104 | 99.7 | 104 | 104 | 93.2 | 100 | 96.2 | 102 | 97.5 | 99.4 | 97 | > 10 | > 10 | > 10 | > 10 | > 10
2 | C#C[C@]1(OC(C)=O)CC[C@H]2[C@@H]3CCC4=C[C@@H](OC(C)=O)CC[C@@H]4[C@H]3CC[C@@]21C [ethynodiol-diacetate] | 0 | 0 | 0 | 0 | 0 | 99.4 | 132 | 103 | 99.6 | 102 | 98.6 | 103 | 104 | 98.6 | 108 | 99 | 98.7 | 99.6 | 97.6 | 92.4 | 104 | 104 | 97.3 | 103 | 107 | 88.6 | 96.9 | 92.4 | 100 | 88.8 | > 10 | > 10 | > 10 | > 10 | > 10
3 | NCC(CC(=O)O)c1ccccc1 (stereo not given) [fenigam] | 0 | 0 | 0 | 0 | 0 | 95.4 | 97.6 | 100 | 97.4 | 97.4 | 100 | 95.8 | 97.6 | 101 | 111 | 93.5 | 91.1 | 97.3 | 95.4 | 98.3 | 95.1 | 97.2 | 92.4 | 106 | 110 | 93.3 | 105 | 101 | 87.8 | 112 | > 10 | > 10 | > 10 | > 10 | > 10
4 | Nc1nc(=O)n([C@@H]2O[C@H](CO)[C@@H](O)[C@@H]2F)cc1I [fiacitabine] | 0 | 0 | 0 | 0.2 | 0.2 | 93.1 | 102 | 102 | 109 | 96 | 98.9 | 97.6 | 98.9 | 100 | 96.7 | 99.8 | 104 | 93.6 | 98.6 | 100 | 104 | 91.4 | 96.1 | 106 | 83.6 | 93.8 | 99.5 | 90.1 | 84.3 | 93.2 | > 10 | > 10 | > 10 | > 10 | > 10
5 | O=C1OC2(c3ccc(O)cc3Oc3cc(O)ccc32)c2ccccc21 [fluorescein] | 0 | 0 | 0 | 0 | 0 | 97.5 | 101 | 101 | 93.6 | 101 | 102 | 94.6 | 106 | 107 | 101 | 99.5 | 101 | 95.2 | 97.7 | 92.5 | 97.9 | 99.1 | 108 | 94.7 | 97.7 | 108 | 116 | 117 | 120 | 98.3 | > 10 | > 10 | > 10 | > 10 | > 10
6 | NNC(=O)CN1C(=O)CN=C(c2ccccc2)c2cc(Br)ccc21 [gidazepam] | 0 | 0 | 0 | 0 | 0 | 104 | 99 | 100 | 110 | 98.5 | 99.3 | 102 | 93 | 94.1 | 102 | 96.5 | 92.2 | 96.8 | 91 | 97.5 | 106 | 92.2 | 109 | 106 | 106 | 95.8 | 92.7 | 94.4 | 90.2 | 95.7 | > 10 | > 10 | > 10 | > 10 | > 10
7 | N=C(N)N/N=C/c1c(Cl)cccc1Cl [guanaben-acetate] | 0 | 0 | 0 | 0 | 0 | 91.7 | 94.2 | 91 | 99.7 | 92.1 | 95.3 | 102 | 100 | 97.5 | 97.7 | 96.9 | 96.2 | 94.6 | 97.7 | 91.5 | 98.1 | 102 | 102 | 93.9 | 101 | 94.3 | 95.8 | 87.3 | 95.4 | 90.7 | > 10 | > 10 | > 10 | > 10 | > 10
8 | CC(C)(N)C(=O)N[C@H](COCc1ccccc1)C(=O)N1CCC2(CC1)CN(S(C)(=O)=O)c1ccccc12 [ibutamoren] | 0 | 0 | 0 | 0 | 0 | 111 | 108 | 98 | 105 | 91 | 104 | 103 | 98.1 | 95.6 | 108 | 100 | 100 | 96.9 | 102 | 100 | 102 | 89.5 | 95.6 | 98 | 95.6 | 93.6 | 98.4 | 99 | 100 | 95.8 | > 10 | > 10 | > 10 | > 10 | > 10
9 | CCOC(=O)[C@H](CCc1ccccc1)N[C@@H](C)C(=O)N1C(=O)N(C)C[C@H]1C(=O)O [imidapril] | 0 | 0 | 0 | 0 | 0 | 98.5 | 96.4 | 99.8 | 97.5 | 96.8 | 104 | 98.3 | 98.1 | 101 | 99.9 | 101 | 93.4 | 97.7 | 95.7 | 102 | 94.6 | 103 | 104 | 113 | 104 | 95.1 | 87.8 | 93.9 | 97.6 | 97.8 | > 10 | > 10 | > 10 | > 10 | > 10
10 | Cc1ccc2c(c1)c1c(n2CCc2ccc(C)nc2)CCN(C)C1 [latrepirdine] | 0 | 0 | 0 | 0 | 0 | 97.5 | 97.4 | 101 | 103 | 95.4 | 98 | 102 | 104 | 96.5 | 93.6 | 100 | 100 | 97.7 | 95.8 | 93.7 | 108 | 102 | 118 | 98.8 | 99.7 | 106 | 99.4 | 97.9 | 96 | 91 | > 10 | > 10 | > 10 | > 10 | > 10
11 | C[C@@H]1NC(=O)[C@@H]2CCCN2C(=O)[C@H](CC(N)=O)NC(=O)[C@@H]2CSSC[C@H](N)C(=O)N[C@H]3CSSC[C@H](NC1=O)C(=O)N[C@@H]([C@@H](C)O)C(=O)NCC(=O)N[C@H](C(=O)N[C@@H](Cc1ccc(O)cc1)C(=O)O)CSSC[C@H](NC(=O)[C@H](Cc1ccc(O)cc1)NC(=O)[C@H](CCC(=O)O)NC3=O)C(=O)N2 [linaclotide] | 0 | 0 | 0 | 0 | 0 | 90.3 | 91.2 | 83.9 | 107 | 97.2 | 100 | 106 | 104 | 91.1 | 103 | 101 | 101 | 97.3 | 100 | 95.8 | 93.6 | 93.8 | 102 | 88.9 | 94.2 | 98.8 | 98.9 | 104 | 110 | 95.1 | > 10 | > 10 | > 10 | > 10 | > 10
12 | Cc1cccc(C)c1OCC(=O)N[C@@H](Cc1ccccc1)[C@@H](O)C[C@H](Cc1ccccc1)NC(=O)[C@H](C(C)C)N1CCCNC1=O [lopinavir] | 0 | 0 | 0 | 0.1 | 0.7 | 103 | 90.1 | 97.3 | 102 | 104 | 103 | 99.1 | 104 | 101 | 110 | 101 | 107 | 100 | 101 | 93.3 | 107 | 106 | 108 | 104 | 86.5 | 90.9 | 102 | 102 | 93.9 | 84.8 | > 10 | > 10 | > 10 | > 10 | > 10
13 | Cc1ccccc1OCC(O)CO (stereo not given) [mephenesin] | 0 | 0 | 0 | 0 | 0 | 111 | 91.1 | 103 | 101 | 106 | 110 | 103 | 99.6 | 102 | 98.4 | 101 | 96.8 | 104 | 97.1 | 100 | 107 | 113 | 109 | 102 | 99.8 | 90.8 | 96.5 | 94.4 | 93.1 | 92.7 | > 10 | > 10 | > 10 | > 10 | > 10
